# Earlier results, collected in patent US12178826B2, “Formulations for the delivery of autophagy stimulating trehalose” (priority 2017, dated 2024).
# Assays:
# [1] = after inhalation; general statement, no test described
# [2] = test system: mutant SOD1 transgenic mice; conditions: Trehalose administration
structure (smiles),measurement,setting,value
"OC[C@H]1O[C@H](O[C@H]2O[C@H](CO)[C@@H](O)[C@H](O)[C@H]2O)[C@H](O)[C@@H](O)[C@@H]1O [Trehalose, (2R,3S,4S,5R,6R)-2-(Hydroxymethyl)-6-[(2R,3R,4S,5S,6R)-3,4,5-trihydroxy-6-(hydroxymethyl)oxan-2-yl]oxyoxane-3,4,5-triol]",time to absorption from the lungs into the bloodstream,[1],≤ 2 h
same,accumulation of SOD1 aggregates,[2],decreased accumulation of SOD1 aggregates
same,life span,[2],significantly prolonged life span
same,motoneuron survival,[2],enhanced motoneuron survival
same,mutant SOD1 degradation by autophagy,NSC34 motoneuron cells,led to mutant SOD1 degradation by autophagy
